Laboratory results from PubChem BioAssay (NCI).
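Interpolation was linear, between the two tested concentrations surrounding the appropriate level; five concentrations were tested over 48 hours in 96-well plates. The concentration for full growth arrest is given as TGI.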

Key:
Assay in all cases: DTP human tumour cell line panel, 48 h
[1] = test system: CCRF-CEM leukemia
[2] = test system: SK-MEL-2 melanoma
[3] = test system: OVCAR-3 ovarian
[4] = test system: HL-60(TB) leukemia
[5] = test system: SF-539 CNS
[6] = test system: BT-549 breast
[7] = test system: SW-620 colon
[8] = test system: SK-OV-3 ovarian
[9] = test system: A549 NSCLC
[10] = test system: NCI-H226 lung
[11] = test system: A498 renal
[12] = test system: OVCAR-5 ovarian
[13] = test system: MCF7 breast
[14] = test system: SNB-19 CNS
[15] = test system: SR leukemia
[16] = test system: MDA-N
[17] = test system: RXF 393 renal
[18] = test system: M14 melanoma
[19] = test system: SN12C renal
[20] = test system: SK-MEL-28 melanoma
[21] = test system: SK-MEL-5 melanoma
[22] = test system: HCT-15 colon
[23] = test system: 786-0 renal
[24] = test system: NCI-H522 lung
[25] = test system: MOLT-4 leukemia
[26] = test system: T-47D breast
[27] = test system: HCC-2998 colon
[28] = test system: EKVX NSCLC
[29] = test system: ACHN renal
[30] = test system: SF-295 CNS
[31] = test system: HS 578T breast
[32] = test system: SF-268 CNS
[33] = test system: PC-3 prostate
[34] = test system: KM12 colon
[35] = test system: IGROV1 ovarian
[36] = test system: COLO 205 colon
[37] = test system: LOX IMVI melanoma
[38] = test system: UACC-257 melanoma
[39] = test system: CAKI-1 renal
[40] = test system: HCT-116 colon
[41] = test system: DU-145 prostate
[42] = test system: NCI/ADR-RES ovarian
[43] = test system: HT29 colon
[44] = test system: NCI-H23 lung
[45] = test system: MALME-3M melanoma
[46] = test system: HOP-92 NSCLC
[47] = test system: UACC-62 melanoma
[48] = test system: SNB-75 CNS
[49] = test system: K-562 leukemia
[50] = test system: UO-31 renal
[51] = test system: MDA-MB-435
[52] = test system: NCI-H460 lung
[53] = test system: RPMI-8226 leukemia
[54] = test system: OVCAR-8 ovarian
[55] = test system: HOP-62 NSCLC
[56] = test system: OVCAR-4 ovarian
[57] = test system: U251 CNS
[58] = test system: TK-10 renal

For CN(C)c1ccc(C2C(Cl)C(=O)N2NC(=O)c2c(Cl)c(Cl)c(Cl)c(Cl)c2-c2nc3ccccc3[nH]2)cc1 (stereo not given), the TGI [1] was > 100 µM, the TGI [2] was 86.7 µM and the TGI [3] was 44.7 µM. For the same compound, the TGI [4] was 28.8 µM, the TGI [5] was 57.4 µM and the TGI [6] was 33.2 µM. For the same compound, the TGI [7] was > 100 µM, the TGI [8] was > 100 µM and the TGI [9] was > 100 µM. The TGI [10] was 69.7 µM, the TGI [11] was 40.2 µM and the TGI [12] was > 100 µM. The TGI [13] was 23.1 µM, the TGI [14] was 94.3 µM and the TGI [15] was > 100 µM. For the same compound, the TGI [16] was 55.8 µM, the TGI [17] was 8.96 µM and the TGI [18] was 51.7 µM. The TGI [19] was 38.4 µM, the TGI [20] was > 100 µM and the TGI [21] was 48.6 µM. For the same compound, the TGI [22] was 32.6 µM, the TGI [23] was 6.2 µM and the TGI [24] was 11.9 µM. For the same compound, the TGI [25] was > 100 µM, the TGI [26] was 25.2 µM and the TGI [27] was 30.2 µM. The TGI [28] was 67.4 µM, the TGI [29] was 34.6 µM and the TGI [30] was > 100 µM. The TGI [31] was > 100 µM, the TGI [32] was 43.5 µM and the TGI [33] was 50.9 µM. It also gave a TGI [34] of 48.4 µM, a TGI [35] of 17.2 µM and a TGI [36] of 66.1 µM. For the same compound, the TGI [37] was 30 µM, the TGI [38] was 44.6 µM and the TGI [39] was 41.1 µM. The TGI [40] was 23.9 µM, the TGI [41] was 22.5 µM and the TGI [42] was > 100 µM. It also gave a TGI [43] of 68.9 µM, a TGI [44] of 29.7 µM and a TGI [45] of 36.3 µM. For the same compound, the TGI [46] was 23.9 µM, the TGI [47] was 37.5 µM and the TGI [48] was 44.3 µM. The TGI [49] was > 100 µM, the TGI [50] was 78.5 µM and the TGI [51] was > 100 µM.

CCOC(=O)CCC(C(=O)OCC)n1nc2ccc(Nc3c(C)[n+]([O-])c4ccc(Cl)cc4[n+]3[O-])cc2n1 (stereo not given) was tested, and the TGI [1] was > 100 µM, the TGI [52] was 33.6 µM and the TGI [2] was 61 µM. The TGI [3] was > 100 µM, the TGI [4] was > 100 µM and the TGI [53] was > 100 µM. The TGI [5] was 43.9 µM, the TGI [6] was > 100 µM and the TGI [7] was > 100 µM. For the same compound, the TGI [8] was 46.8 µM, the TGI [9] was 45.8 µM and the TGI [10] was 51.5 µM. For the same compound, the TGI [11] was 56.3 µM, the TGI [12] was > 100 µM and the TGI [13] was 65.8 µM. The TGI [14] was 95.9 µM, the TGI [15] was > 100 µM and the TGI [16] was > 100 µM. For the same compound, the TGI [17] was 27.3 µM, the TGI [18] was > 100 µM and the TGI [19] was 48.4 µM. The TGI [21] was 76.2 µM, the TGI [22] was > 100 µM and the TGI [23] was 33.8 µM. For the same compound, the TGI [54] was 65.7 µM, the TGI [55] was 40.4 µM and the TGI [56] was > 100 µM. For the same compound, the TGI [24] was > 100 µM, the TGI [25] was > 100 µM and the TGI [26] was 55.2 µM. It also gave a TGI [27] of 28 µM, a TGI [28] of 41.1 µM and a TGI [29] of 31.9 µM. It also gave a TGI [30] of 39.1 µM, a TGI [31] of 58.3 µM and a TGI [57] of 39.1 µM. The TGI [58] was > 100 µM, the TGI [32] was 36.3 µM and the TGI [33] was > 100 µM. The TGI [34] was > 100 µM, the TGI [35] was > 100 µM and the TGI [36] was > 100 µM. For the same compound, the TGI [37] was 30 µM, the TGI [38] was 70.8 µM and the TGI [39] was > 100 µM. It also gave a TGI [40] of 57.7 µM, a TGI [41] of 60.9 µM and a TGI [42] of 48 µM. The TGI [43] was > 100 µM, the TGI [44] was 53.4 µM and the TGI [45] was > 100 µM. The TGI [46] was 71.4 µM, the TGI [47] was > 100 µM and the TGI [49] was > 100 µM. The TGI [50] was 35.6 µM and the TGI [51] was > 100 µM.

For C(=N\c1cc2cc(Sc3ccccc3)ccc2[nH]1)/c1ccccc1, the TGI [1] was > 12.5 µM, the TGI [3] was > 12.5 µM and the TGI [4] was > 12.5 µM. For the same compound, the TGI [53] was > 12.5 µM, the TGI [5] was > 12.5 µM and the TGI [6] was > 12.5 µM. The TGI [7] was > 12.5 µM, the TGI [9] was > 12.5 µM and the TGI [11] was > 12.5 µM. For the same compound, the TGI [13] was > 12.5 µM, the TGI [14] was > 12.5 µM and the TGI [15] was > 12.5 µM. For the same compound, the TGI [16] was > 12.5 µM, the TGI [17] was > 12.5 µM and the TGI [18] was > 12.5 µM. The TGI [19] was > 12.5 µM, the TGI [20] was > 12.5 µM and the TGI [21] was > 12.5 µM. For the same compound, the TGI [22] was > 12.5 µM, the TGI [23] was > 12.5 µM and the TGI [54] was > 12.5 µM. For the same compound, the TGI [55] was > 12.5 µM, the TGI [56] was > 12.5 µM and the TGI [24] was > 12.5 µM. The TGI [25] was > 12.5 µM, the TGI [26] was > 12.5 µM and the TGI [27] was > 12.5 µM. The TGI [28] was > 12.5 µM, the TGI [29] was > 12.5 µM and the TGI [30] was > 12.5 µM. For the same compound, the TGI [31] was > 12.5 µM, the TGI [32] was > 12.5 µM and the TGI [33] was > 12.5 µM. For the same compound, the TGI [34] was > 12.5 µM, the TGI [37] was > 12.5 µM and the TGI [38] was > 12.5 µM. The TGI [39] was > 12.5 µM, the TGI [40] was > 12.5 µM and the TGI [41] was > 12.5 µM. The TGI [42] was > 12.5 µM, the TGI [43] was > 12.5 µM and the TGI [44] was > 12.5 µM. The TGI [45] was > 12.5 µM, the TGI [46] was > 12.5 µM and the TGI [47] was > 12.5 µM. The TGI [48] was > 12.5 µM, the TGI [49] was > 12.5 µM and the TGI [51] was > 12.5 µM.
